{"source": "patent US20190117770A1", "about": "“USES OF IMMUNOCONJUGATES TARGETING CD138” (Biotest AG, priority 2011, published 2019)", "key": {"[1]": {"system": "plasma cell myeloma cell line L363", "type": "in vivo, NOD/SCID mice", "settings": "4 mg/kg BT062 alone, once weekly", "procedure": "In this model, a highly aggressive CD138 expressing plasma cell myeloma cell line L363 was subcutaneously implanted into NOD/SCID mice. Treatment started when tumors reached a size of approx. 100 mm^3. […] Tumor size was measured once weekly."}, "[2]": {"system": "OPM-2 cells", "experiment": "FACS analysis of binding", "type": "cell-based", "settings": "FIG. 6", "from_the_text": "OPM-2 cells are plasma cell leukaemia cell lines showing highly expressing CD138. […] The cells were washed and CD138-bound antibody or conjugates were detected using a fluorescence-labelled secondary antibody in FACS analysis. The mean fluorescence measured in these experiments was plotted against the antibody concentration."}, "[3]": {"system": "Lung carcinoma", "experiment": "Lung carcinoma xenograft", "type": "in vivo, NMRI (nude) mice", "settings": "both dose groups (4 mg/kg and 23.85 mg/kg once per week)", "procedure": "These tumors display similar characteristics as the patient tumors, since they are passaged in mice at low numbers, to retain original characteristics.\nNMRI (nude) mice are implanted with a Lung carcinoma (determined via IHC analysis as CD138 strong positive).\nTumor diameters are measured two times a week."}, "[4]": {"system": "human derived breast cancer model with CD138 IHC score 2-3", "experiment": "Breast cancer model, CD138 IHC score 2-3", "type": "in vivo, NMRI nude mice", "settings": "8 mg/kg once weekly", "from_the_text": "The results are shown in terms of the effect on the mean relative tumor volume in the model relative to an intravenous administration of PBS. For the calculation of the median relative tumor volume on day, see FIG. 33."}, "[5]": {"system": "MOLP 8 human myeloma cells", "source_text": "Female SCID mice were subcutaneously inoculated with MOLP 8 human myeloma cells. […] A control group of animals received phosphate buffered saline (PBS) using the same schedule and route of administration. Tumor growth was monitored by measuring tumor size and calculated with the formula length×width×height×1/2, determined on days 10, 14, 18 and 21.\nFTV: Fractional tumor volume=mean tumor volume (test)/mean tumor volume (control)"}, "[6]": {"system": "relapsed/refractory multiple myeloma", "experiment": "Human trial, repeated multiple dose regimen (days 1, 8, 15)", "from_the_text": "This includes, e.g., in alternating 2 and 3 day intervals, in 4 day intervals, in progressive increasing intervals such as on day 1, 3, 6, 10, 15. […] Such a treatment cycle, including a resting period, is also referred to herein as “full” or “complete” treatment cycle. A treatment free period describes the time during which no treatment is given. Thus, in the above example, the treatment free period would start at day 16. At the beginning of the resting period, no immunoconjugate is administered to the patient.\nGenerally, all toxicities of at least grade 3 are defined as DLT. Further study specific DLT criteria which can be employed are listed below: Nonhematological: • Alopecia, of any grade, is not considered a DLT • Grade 3-4 nausea and vomiting lasting longer than 3 days despite optimal antiemetic medication.^a • Grade 3-4 diarrhea lasting longer than 3 days despite optimal antidiarrheal medication.^a a. Optimal antidiarrheal and antiemetic treatment were determined by each investigator.\nThese DLTs may occur in a first or a subsequent treatment cycle. […] Preferably DLTs in the first cycle are considered.\nInitially, the response to treatment was evaluated at day 1 of treatment cycles 1-3 by M-protein quantification using immunoelectrophoresis (IEP) and immunofixation electrophoresis (IFE) from serum and 24-hour urine collection. […] A general quantitative immunoglobulin assessment was done together with M-protein quantification.\nSerum samples were used to perform FLC assays to examine multiple myeloma subjects with no detectable M-protein (nonsecretory/oligosecretory myeloma) and to allow for detection of early response to treatment. Therefore serum FLC assays were performed on day 1, 2, 3, and 8 of treatment cycle 1, on day 2, 3, 8 and 15 of cycle 4, as well as on day 1, 8 and 15 of all other treatment cycles. M-protein and FLC were be analyzed at the screening and at the close-out visit. Evaluations at day 1 of cycle 1 served as baseline values."}, "[7]": {"experiment": "Half life in human plasma ex vivo", "type": "in vitro ADME"}, "[8]": {"system": "MOLP8 multiple myeloma cells", "experiment": "MOLP8 xenograft, combination BT062 and VELCADE", "type": "in vivo, mice", "from_the_text": "The ACTIVITY RATING is another measurement for the effects of a combination. This rating is based on the Log10 cell kill\nwhere (T-C) or tumor growth delay, is the median time in days required for the treatment group (T) and the control group (C) tumours, to reach a predetermined size (600 mm^3)."}}, "note": "Where “and” joins values, the source holds several entries; their conditions need not be identical. Identical values can stand only once. Entries after “also recorded” stand apart in the source; their conditions may differ. Like-named read-outs stand apart in the source and are kept apart here."}
{"substance": "BT062", "values": [{"measurement": "tumor growth", "setting": "[1]", "value": "active in reducing the tumor growth"}, {"measurement": "binding characteristics", "setting": "[2]", "value": "very similar binding characteristics"}, {"measurement": "tumor response", "setting": "[3]", "value": "Complete remission"}, {"measurement": "tumor response", "setting": "[4]", "value": "complete remission"}, {"measurement": "Regressions Complete", "setting": "[5]; BT062 100 ug/kg", "value": "0/6"}, {"measurement": "Regressions Partial", "setting": "[5]; BT062 100 ug/kg", "value": "0/6"}, {"measurement": "Result", "setting": "[5]; BT062 100 ug/kg", "value": "Active"}, {"measurement": "T/C (%) (DAY 17)", "setting": "[5]; BT062 100 ug/kg", "value": 35, "unit": "%"}, {"measurement": "Tumor free survivors day 77", "setting": "[5]; BT062 100 ug/kg", "value": "0/6"}, {"measurement": "Regressions Complete", "setting": "[5]; BT062 200 ug/kg", "value": "0/6"}, {"measurement": "Regressions Partial", "setting": "[5]; BT062 200 ug/kg", "value": "0/6"}, {"measurement": "Result", "setting": "[5]; BT062 200 ug/kg", "value": "Active"}, {"measurement": "T/C (%) (DAY 17)", "setting": "[5]; BT062 200 ug/kg", "value": 14, "unit": "%"}, {"measurement": "Tumor free survivors day 77", "setting": "[5]; BT062 200 ug/kg", "value": "0/6"}, {"measurement": "Regressions Complete", "setting": "[5]; BT062 400 ug/kg", "value": "1/6"}, {"measurement": "Regressions Partial", "setting": "[5]; BT062 400 ug/kg", "value": "4/6"}, {"measurement": "Result", "setting": "[5]; BT062 400 ug/kg", "value": "highly active (A Log10 cell kill of higher than 2.8)"}, {"measurement": "T/C (%) (DAY 17)", "setting": "[5]; BT062 400 ug/kg", "value": 9, "unit": "%"}, {"measurement": "Tumor free survivors day 77", "setting": "[5]; BT062 400 ug/kg", "value": "0/6"}, {"measurement": "DLTs", "setting": "[6]; 40 mg/m^2 weekly, 14 administrations", "value": "no DLTs"}, {"measurement": "response", "setting": "[6]; 80 mg/m^2 weekly, Patient 12", "value": "partial response"}, {"measurement": "progression free survival", "setting": "[6]; 100 mg/m^2 weekly, patient 15 (FIG. 23)", "value": "more than 3 months"}, {"measurement": "response", "setting": "[6]; 120 mg/m^2 weekly, patient 19 (FIG. 24)", "value": "unconfirmed minor response"}, {"measurement": "patients displaying DLT", "setting": "[6]; 140 mg/m^2 weekly", "value": "1 out of 6"}, {"measurement": "patients displaying DLTs", "setting": "[6]; 160 mg/m^2 weekly", "value": "two out of the four and 2 out of 4"}, {"measurement": "response", "setting": "[6]; 160 mg/m^2 weekly, patient 31", "value": "minor response"}, {"measurement": "M-protein decrease", "setting": "[6]; 160 mg/m^2 weekly, patient 31 (FIG. 25)", "value": "more than 25%"}, {"measurement": "disease status", "setting": "[6]; 3 × 50 mg/m^2, over six cycles (Patient 6)", "value": "no disease progression; also recorded: At least stable disease could be achieved"}, {"measurement": "serum FLC level", "setting": "[6]; 3 × 65 mg/m^2, after a single treatment cycle (FIG. 21)", "value": "A strong decrease of the serum FLC level"}, {"measurement": "Tolerability", "setting": "[6]; 3 × 80 mg/m^2, aggregate 240 mg/m^2 in three weeks", "value": "well tolerated"}, {"measurement": "reduction of urine M protein", "setting": "[6]; 3 × 120 mg/m^2, after 3rd, 7th and 10th cycle", "value": "50% achieved after 3rd, 7th and 10th cycle"}, {"measurement": "patients with progression free survival of at least 168 days", "setting": "[6]; FIG. 18", "value": "four"}, {"measurement": "patients with progression free survival of at least 300 days", "setting": "[6]; FIG. 18", "value": "two"}, {"measurement": "treatment without disease progression", "setting": "[6]; Patient 8 (FIG. 21)", "value": 168, "unit": "days"}, {"measurement": "patients (out of 32) with progression free survival of at least 3 months", "setting": "[6]; all dose levels (FIG. 18)", "value": 14}, {"measurement": "DLT (palmar-plantar erythrodysaethesia syndrome), patients", "setting": "[6]; at 420 (3 × 140 mg/m^2), out of six", "value": "toxicities (up to now), one"}, {"measurement": "MAD", "setting": "[6]; days 1, 8, 15", "value": 160, "unit": "mg/m^2"}, {"measurement": "DLTs", "setting": "[6]; three 21 day cycles of 3×100 mg/m^2", "value": "No DLTs"}, {"measurement": "DLTs", "setting": "[6]; three 21 day cycles of 3×120 mg/m^2", "value": "No DLTs"}, {"measurement": "plasma half life", "setting": "[7]", "value": 14, "unit": "days"}, {"measurement": "(T − C)", "setting": "[8]; BT062 100 ug/kg", "value": 5.5, "unit": "days"}, {"measurement": "Regressions Complete", "setting": "[8]; BT062 100 ug/kg", "value": "0/6"}, {"measurement": "Regressions Partial", "setting": "[8]; BT062 100 ug/kg", "value": "0/6"}, {"measurement": "Result", "setting": "[8]; BT062 100 ug/kg", "value": "Inactive"}, {"measurement": "Tumor free survivors day 67", "setting": "[8]; BT062 100 ug/kg", "value": "0/6"}, {"measurement": "log cell kill", "setting": "[8]; BT062 100 ug/kg", "value": 0.5}, {"measurement": "T/C (%)", "setting": "[8]; BT062 100 ug/kg, Day 1", "value": 43, "unit": "%"}, {"measurement": "(T − C)", "setting": "[8]; BT062 200 ug/kg", "value": 14.5, "unit": "days"}, {"measurement": "Regressions Complete", "setting": "[8]; BT062 200 ug/kg", "value": "0/6"}, {"measurement": "Regressions Partial", "setting": "[8]; BT062 200 ug/kg", "value": "1/6"}, {"measurement": "Result", "setting": "[8]; BT062 200 ug/kg", "value": "Active"}, {"measurement": "Tumor free survivors day 67", "setting": "[8]; BT062 200 ug/kg", "value": "0/6"}, {"measurement": "log cell kill", "setting": "[8]; BT062 200 ug/kg", "value": 1.3}, {"measurement": "T/C (%)", "setting": "[8]; BT062 200 ug/kg, Day 1", "value": 11, "unit": "%"}, {"measurement": "(T − C)", "setting": "[8]; BT062 400 ug/kg", "value": 31.5, "unit": "days"}, {"measurement": "Regressions Complete", "setting": "[8]; BT062 400 ug/kg", "value": "2/6"}, {"measurement": "Regressions Partial", "setting": "[8]; BT062 400 ug/kg", "value": "4/6"}, {"measurement": "Result", "setting": "[8]; BT062 400 ug/kg", "value": "highly active (A Log10 cell kill of higher than 2.8)"}, {"measurement": "Tumor free survivors day 67", "setting": "[8]; BT062 400 ug/kg", "value": "0/6"}, {"measurement": "log cell kill", "setting": "[8]; BT062 400 ug/kg", "value": 2.8}, {"measurement": "T/C (%)", "setting": "[8]; BT062 400 ug/kg, Day 1", "value": 7, "unit": "%"}, {"measurement": "(T − C)", "setting": "[8]; last line: BT062 400 ug/kg", "value": 36.5, "unit": "days"}, {"measurement": "Regressions Complete", "setting": "[8]; last line: BT062 400 ug/kg", "value": "0/6"}, {"measurement": "Regressions Partial", "setting": "[8]; last line: BT062 400 ug/kg", "value": "6/6"}, {"measurement": "Result", "setting": "[8]; last line: BT062 400 ug/kg", "value": "highly active (A Log10 cell kill of higher than 2.8)"}, {"measurement": "Tumor free survivors day 67", "setting": "[8]; last line: BT062 400 ug/kg", "value": "0/6"}, {"measurement": "log cell kill", "setting": "[8]; last line: BT062 400 ug/kg", "value": 3.2}, {"measurement": "T/C (%)", "setting": "[8]; last line: BT062 400 ug/kg Day 1", "value": 7, "unit": "%"}]}
